Measurements: PMC6627374, “Effects of the Pentapeptide P33 on Memory and Synaptic Plasticity in APP/PS1 Transgenic Mice: A Novel Mechanism Presenting the Protein Fe65 as a Target” (International Journal of Molecular Sciences, 2019)
Where a SMILES comes first, the peptide text is derived from it.

Tests used:
human Aβ1–42 = assay: ELISA, soluble Aβ1–42 in HC and CTX; type: in vivo, human Aβ1–42 in APP/PS1 transgenic mice; settings: APP/PS1 mice; 5 mg∙kg^−1 i.p., six months
Method: (§1) For this study, three-month-old male and female WT and APP/PS1 mice (n = 37) were used. Four groups were defined: WT-vehicle (physiological saline) (male n = 4; female n = 6), WT-P33 (male n = 6; female n = 5), APP/PS1-vehicle (male n = 3; female n = 5), and APP/PS1-P33 (male n = 6; female n = 2). Animals were subjected to intraperitoneal (i.p.) injections of P33 (5 mg∙kg^−1) for five days per week, over a course of six months. The mice were kept in groups under constant temperature (23 ± 0.5 °C), lighting (12-h/12-h light/dark cycle, lights on at 7:00 a.m.), and humidity (~50%). Standard mouse chow and tap water were supplied ad libitum. All behavioral experiments were performed in the light period. Handling was done daily at the same time.
Nine-month-old mice (three animals per group) were euthanized via cervical dislocation. […] To quantify the level of Aβ in the mice, we used a sandwich ELISA Kit (Innotest Amyloid-[…]) from Innogenetics (Gent, Belgium), following the instructions of the manufacturer. The absorbance values were measured at 450 nm on a 96-well plate reader (NOVOstar OPTIMA, BMG Labtech, Offenburg, Germany).
The results of spine density and immunohistochemistry experiments were calculated with one-way ANOVA followed by Fisher’s LSD post hoc tests. […] Data were analyzed with SPSS (IBM SPSS Statistics 24), and were expressed as the mean ± standard error of the mean (SEM). […]

GFAP-positive astrocytes = assay: GFAP immunohistochemistry, astrocyte density; type: in vivo, mouse; settings: APP/PS1-vehicle vs. WT-vehicle, WT-P33, APP/PS1-P33; whole HC and CTX; 5 mg∙kg^−1 i.p., six months
Method: as §1
Mice (five animals per group) were anaesthetized with chloral-hydrate (1 mg∙kg^−1) and perfused transcardially with PBS, followed by ice-cold 4% paraformaldehyde. The brains were removed, post-fixed in the same fixative, and immersed in a 30% sucrose solution containing 0.01% sodium-azide. […]
Slides were scanned by a digital slide scanner (Mirax Midi, 3DHistech Ltd., Budapest, Hungary), equipped with a Pannoramic Viewer 1.15.4, CaseViewer 2.1 program and a QuantCenter, HistoQuant module (3DHistech Ltd., Budapest, Hungary). For quantification, all of the sections were analyzed. […] Antibody-positive cell types from the ROIs were counted and quantified. […]

## C[C@@H](N)C(=O)N1CCC[C@@H]1C(=O)N[C@H](C)C(=O)N1CCC[C@@H]1C(=O)N[C@H](CCC(=O)O)C(N)=O [P33] (HELM PEPTIDE1{[dA].[dP].[dA].[dP].[dE].[am]}$$$$V2.0)
Human Aβ1–42
  soluble Aβ1–42, effect of P33 (in words): decreased level of Aβ1–42 in the APP/PS1 mice
GFAP-positive astrocytes
  density of hyperreactive (GFAP-positive) astrocytes (in words): higher in the whole HC and CTX of the APP/PS1-vehicle group, than in the other three groups
